Assay results from patent US11377444B2, “Pyridopyrimidine compounds acting as mTORC 1/2 dual inhibitors” (MEDSHINE DISCOVERY INC., priority 2017, dated 2022).
Values joined by “and” are separate entries in the source; they are usually repeats but may differ in a detail not shown here. Equal entries are not always repeated.

Tests used:
MCF-7 cell = experiment: Cell proliferation inhibitory activity (Cell-Titer-Glo), MCF-7; format: cell-based; conditions: Homo sapiens, MCF7, 72 h; 3 days incubation
Excerpt: Experimental Embodiment 2: Evaluation of Cell Proliferation Inhibitory Activity
Experiment objective: To detect cell proliferation inhibitory activity of the tested compounds.
Experimental principle: The luciferase in the Cell-Titer-Glo reagent produces oxyluciferin using luciferin, oxygen and ATP as reaction substrates, and releases energy in the form of light. Since the reaction of luciferase requires ATP, the total amount of light generated by the reaction is proportional to the total amount of ATP that reflects cell viability.
Cell lines: MCF-7 cell line […], HT-29 cell line (ATCC-HTB-38), OE21 (ECACC-96062201), NCI-N87 cell line (ATCC-CRL-5822)
Cell culture medium: (RPMI 1640 culture medium (Invitrogen #1868546; 10% serum Invitrogen #1804958; L-glutamine 1×, Invitrogen #1830863; dual antibiotic Hyclone #J170012))
Cell Titer-Glo® Luminescent Cell Viability Assay Kit (Promega #G7573)
The cells were inoculated in a 384- or 96-well plate with a density of 1000 cells per well and 25 μL per well according to the instructions of the cell inoculating plate. The edge wells were not inoculated with cells, and was supplemented with […].
(i) The mother solution of the compound was 10 mM, and diluted with DMSO to an initial concentration of 4 mM. The compound was added to the compound mother solution, 9 μL per well.
(ii) The compound was diluted with ECHO liquid-handling workstation. Each well of the cell plate was added with 125 nL compound. Each well of the cell wells in 2nd column and 23rd column was added with 125 nL DMSO, and each of the PBS wells in 1st column and 24th column was added with 125 nL DMSO.
(iii) Each well of the cell plate was supplemented with 25 μL culture medium, the final volume in each well of the cell plate was 50 μL, […] 3 times dilution, 10 concentrations, each concentration was duplicated in left and right wells, the final DMSO concentration was 0.25%.
2.3. After addition of the compound, centrifugation was performed at 1000 rpm for 1 min, and the cell plate was placed in a 37° C., 5% CO2 incubator for 3 days.
The cell plate was taken out from the incubator and equilibrated at room temperature for 30 minutes. 25 μL Cell-Titer-Glo reagent was added to each well, shaken for one minute to mix thoroughly, centrifuged at 1000 rpm for 1 minute. After 10 minutes, the plate was read on PerkinElmer Envision with a […] reading time was set at 0.2 second.

[1] = tested on: human breast cancer MCF-7 cell subcutaneous xenograft tumor; experiment: In vivo pharmacodynamic study, MCF-7 subcutaneous xenograft tumor; parameters: species or system BALB/c nude mouse; conditions: for Tumor volume (27th day): mean ± SEM; for Tumor volume (day 0): day 0, mean ± SEM
Excerpt: Experimental Embodiment 4: In Vivo Pharmacodynamic Study on BALB/c Nude Mouse Model of Human Breast Cancer MCF-7 Cell Subcutaneous Xenograft Tumor
Experimental objective: To study the efficacy of the test compounds on human breast cancer MCF-7 cell subcutaneous xenograft tumor in BALB/c nude mouse model.
Experimental animals: Female BALB/c nude mice, 6-8 weeks old, weighing 18-22 grams; supplier: Shanghai Xipuer-Bikai Experimental Animal Co., Ltd.
Human breast cancer MCF-7 cells (ECACC, article number: 86012803) were subjected to in vitro monolayer culture under the conditions of EMEM (EBSS)+2 mM […]+1% Non Essential Amino Acids (NEAA) medium containing 10% fetal bovine serum, 100 U/mL penicillin and 100 μg/mL streptomycin, and 37° C., 5% CO2incubator. Conventional digestion treatment was carried out with trypsin-EDTA twice a week for cell passage. When the cell saturation was 80%-90%, and the quantity reached the requirement, the cells were collected, counted and inoculated.
Estrogen tablets (0.18 mg) were inoculated into the left back of each mouse three days before cell inoculation, 0.2 mL (1×10^7) MCF-7 cells (added with matrigel, volume ratio of 1:1) were subcutaneously inoculated into the right back of each mouse. When the average volume of tumor reached 142 mm^3, the mice were divided into groups and began to be administrated.
The test compounds were prepared into clear solutions of 0.75 mg/mL, 1.5 mg/mL and 3 mg/mL. The vehicles were 5% DMSO+30% polyethylene glycol 300+65% water.
The experimental indexes were used for investigating whether the growth of the tumors had been inhibited, delayed or cured. The diameters of the tumors were measured with vernier calipers twice a week. The calculation formula of the tumor volume was: V=0.5a×b^2, wherein a and b represent the long and short diameters of the tumor respectively.
The antitumor efficacy of the compound was evaluated by TGI (%) or relative tumor proliferation rate T/C (%). TGI (%) reflects the inhibition rate of the tumor growth. Calculation of TGI (%): TGI (%)=[1−(average tumor volume at the end of administration in the treatment group−average tumor volume at the beginning of administration in the treatment group)/(average tumor volume at the end of treatment in the vehicle control group−average tumor volume at the beginning of treatment in the vehicle control group)]×[…].
Relative tumor proliferation rate T/C (%): The calculation formula was as follows: T/C %=TRTV/CRTV at the beginning of the treatment (TRTV: treatment group RTV; CRTV: negative control group RTV). The relative tumor volume (RTV) was calculated according to the results of tumor measurement. The calculation formula was RTV=Vt/V0, wherein V0 is the average tumor volume measured during administration of the groups (i.e. d0), and Vt is the average tumor volume during a certain measurement, the TRTV and CRTV were taken on the same day.
Statistical analysis included the mean and standard error (SEM) of tumor volume at each time point in each group. […] The comparison between two groups was analyzed by T-test, and the comparison between three or more groups was analyzed by one-way ANOVA.

Row | Compound | IC50 (MCF-7 cell) [nM] | T/C ([1]; 7.5 mg/kg) [%] | TGI ([1]; 7.5 mg/kg) [%] | RTV (27th day) ([1]; 7.5 mg/kg) | Tumor volume (27th day) ([1]; 7.5 mg/kg) [mm^3] | Tumor volume (day 0) ([1]; 7.5 mg/kg) [mm^3] | T/C ([1]; 15 mg/kg) [%] | TGI ([1]; 15 mg/kg) | difference compared with the vehicle control group ([1]; 15 mg/kg) | RTV (27th day) ([1]; 15 mg/kg) | Tumor volume (27th day) ([1]; 15 mg/kg) [mm^3] | Tumor volume (day 0) ([1]; 15 mg/kg) [mm^3] | T/C ([1]; 30 mg/kg) [%] | TGI ([1]; 30 mg/kg) [%] | difference compared with the vehicle control group ([1]; 30 mg/kg) | RTV (27th day) ([1]; 30 mg/kg) | Tumor volume (27th day) ([1]; 30 mg/kg) [mm^3] | Tumor volume (day 0) ([1]; 30 mg/kg) [mm^3] | TGI ([1]; 30 mg/kg, listed as embodiment 23) [%]
1 | CNC(=O)c1cccc(-c2ccc3c(N4CCOC[C@@H]4C)nc(N4CCOC[C@@H]4C)nc3n2)c1 [AZD2014, reference compound] | 95 | 53.95 | 61.10 | 2.25 ± 0.47 | 315 ± 65 | 142 ± 9 | 20.36 | 104% and 104.37% | significant difference | 0.85 ± 0.26 | 121 ± 41 | 141 ± 8 | – | – | – | – | – | – | –
2 | CNC(=O)c1cccc(-c2ccc3c(N4CCOC[C@@H]4C)nc(N4CCOC5(CCC5)C4)nc3n2)c1 [Embodiment 23] | 163 | 83.52 | 22.14 | 3.48 ± 0.37 | 489 ± 51 | 142 ± 9 | 54.13 | 59.05% | – | 2.26 ± 0.48 | 324 ± 79 | 141 ± 9 | 25.50 | 98.33 | significant difference | 1.06 ± 0.17 | 150 ± 26 | 141 ± 8 | 98
3 | C[C@H]1COCCN1c1nc(N2CCOC3(CC3)C2)nc2nc(-c3cccc(C(N)=O)c3)ccc12 [Embodiment 51] | 208 | – | – | – | – | – | 57.84 | 59.27% | – | 2.41 ± 0.36 | 323 ± 25 | 142 ± 11 | – | – | – | – | – | – | –
